Where two headings read alike, the source gives them in different places.
Test system: YUL0019 PR8 cells
Assay: Drug sensitivity of poziotinib resistant YUL0019 cells (FIG. 8)
Type: cell-based

With `Cc1csc(-c2nnc(Nc3ccc(Oc4ncccc4-c4ccnc(N)n4)cc3)c3ccccc23)c1` [AMG 900] the “Sensitivity of YUL0019 PR8 (poziotinib resistant) cells” value (shortened to “Sensitivity of YUL0019 PR8”) (listed as AMG900) was “sensitive” and the “Sensitivity of YUL0019 PR8” value (listed as AMG-900) was “highly sensitive”.

With `CN1CC[C@H](c2c(O)cc(O)c3c(=O)cc(-c4ccccc4Cl)oc23)[C@H](O)C1` [Alvocidib] the “Sensitivity of YUL0019 PR8” value was “highly sensitive”.

With `CC[C@@H]1C(=O)N(C)c2cnc(Nc3ccc(C(=O)N[C@H]4CC[C@H](N5CCN(CC6CC6)CC5)CC4)cc3OC)nc2N1C(C)C` [BI6727 (Volasertib)] the “Sensitivity of YUL0019 PR8” value was “highly sensitive”.

`Cc1ccc(C(=O)N(CCCN)[C@@H](c2nc3cc(Cl)ccc3c(=O)n2Cc2ccccc2)C(C)C)cc1` [Ispinesib] was tested, and the “Sensitivity of YUL0019 PR8” value was “highly sensitive” and the “Sensitivity of YUL0019 PR8” value (listed as ispinasib) was “sensitive”.

For `COc1cc(Nc2ncc3c(n2)-c2ccc(Cl)cc2C(c2c(F)cccc2OC)=NC3)ccc1C(=O)O` [MLN8237 (Alisertib)], the “Sensitivity of YUL0019 PR8” value (listed as Alisertib) was “sensitive” and the “Sensitivity of YUL0019 PR8” value (listed as alisertib) was “highly sensitive”.

In the case of `C=CC(=O)N1CCC(Oc2cc3c(Nc4ccc(Cl)c(Cl)c4F)ncnc3cc2OC)CC1` [poziotinib, 1-[4-[4-(3,4-dichloro-2-fluoroanilino)-7-methoxyquinazolin-6-yl]oxypiperidin-1-yl]prop-2-en-1-one], the “Sensitivity of YUL0019 PR8” value is reported as “resistant”.

Source: patent US20210015819A1, “METHODS FOR TREATMENT OF CANCERS WITH EGFR ACTIVATING MUTATIONS” (Board of Regents, The University of Texas System, priority 2018, published 2021)
